The record followed here is US4529736A, “3a-(substituted phenyl)-2,3,3a,4,7,7a-hexahydro[or 3a-(substituted-phenyl)octahydro]-4,7-alkano-1H-isoindoles for treating depression in warm-blooded animals” (American Cyanamid Company, priority 1983, dated 1985).

SMILES strings stand for the structures. Where a name gives a salt, the structure may show the parent alone.

Assay [1] deals with T1, [^3 H]-imipramine binding to human platelet membranes (Homo sapiens, UniProt P31645).
T1 construct: from tissue; host or cells: human platelets (sonicated, washed membranes)
Kind of assay: Platelet Imipramine Binding: inhibition of [^3 H]-imipramine binding to human platelet membranes. To be noted: 50 μl of 50 μM compound stock + 200 μl membrane/[^3 H]imipramine mixture; 60 minutes at 0° C.; 10 μM desmethylimipramine = 0% binding. The method, then: The activity of the compounds of this invention as antidepressant agents was further verified in the following test which measures the ability of a test compound to inhibit [^3 H]-imipramine binding to human platelet membranes.
Human platelet concentrates were diluted 1:20 with antiprotease containing buffer of the following composition:
0.005N potassium chloride
3 mN ethylenediaminetetraacetic acid
1 mN ethyleneglycol-bis-(β-aminoethyl ether)-N,N'-tetraacetic acid
This buffer was kept at pH 6.8 to prevent platelet release and aggregation.
The diluted platelets were centrifuged at 2500 g and then resuspended in 50 volumes of the same buffer. The cells were then ruptured with a Branson sonicator while the suspension was maintained in an ice bath. The ruptured cells were then centrifuged at 18,000 g, resuspended in fresh buffer and recentrifuged at 18,000 g. These membranes were diluted with the above antiprotease buffer which had been adjusted to pH 7.4 and to a concentration of 3.0 mg/ml.
The test compounds were dissolved in dimethylsulfoxide at a concentration of 50 mM and then diluted 1:10 in either water, 0.1M hydrochloric acid or 0.1M sodium hydroxide. They were then diluted 1:100 in buffer to 50 μM, and 50 μl of this stock solution was placed in triplicate test tubes. The tubes were cooled to 0° C. and 200 μl of the following mixture were added:
100 μl of 3 mg/ml membrane in buffer
50 μl of 15 nM[^3 H]imipramine in buffer
The tubes were incubated for 60 minutes at 0° C. Controls contain either buffer alone (100%) of 10 μM of final desmethylimipramine (DMI) (0%).
The samples were diluted with 5 ml of buffer [0.12M-sodium chloride, 0.05M-tris buffer, 0.005M-potassium chloride (pH 7.4)], vacuum filtered and washed twice with 5 ml of buffer. Radioactivity was measured in a liquid scintillation counter and the degree of binding was calculated.

The test system of assay [2] is tetrabenazine-induced ptosis. Kind of assay: Tetrabenazine Induced Ptosis (inhibition of ptosis). It counts as in vivo. To be noted: Mus musculus, ip, read-out: % Mice Responding. The procedure:
The antidepressant activity of the compounds of this invention was further established in the following test. Inhibition of tetrabenazine-induced ptosis is observed concomitantly with the inhibition of tetrabenazine-induced depression. Ptosis is defined as more than 75% closure of palpebral aperture induced in animals by the administration of tetrabenazine methanesulfonate. The compounds were administered orally (P.O.) or intraperitoneally (I.P.) at 25 mg/kg to groups of 10 mice. Thirty minutes later, tetrabenazine methanesulfonate was administered intraperitoneally to each mouse at a dose of 39 mg/kg. Thirty minutes after the injection of tetrabenazine, the mice were placed on an observation disc and examined for 10 seconds for inhibition of ptosis. […]

For assay [3], the system named is tetrabenazine-induced depression. Kind of assay: Tetrabenazine Induced Depression (exploratory behaviour). It counts as in vivo. The following applies: Mus musculus, ip, read-out: % Mice Protected. The method, then: The compounds of this invention are useful as antidepressant agents in warm-blooded animals as verified by the following test. The antidepressant properties of these compounds were tested by measuring their ability to counteract depression induced in animals by the administration of tetrabenazine methanesulfonate. Each test compound was administered orally (P.O.) or intraperitoneally (I.P.) to 10 mice at a dose of 25 mg/kg of body weight. Thirty minutes later, tetrabenazine methanesulfonate was administered intraperitoneally to each mouse at a dose of 39 mg/kg of body weight, which dose is known to depress markedly the exploratory behaviour of normal mice. Thirty minutes later the mice were tested for their exploratory behaviour as described by E. Greenblatt and A. C. Osterberg, Toxicology and Applied Pharmacology, 7, 566-578 (1965).

The subject of assay [4] is stress induced depressed ("coping") behavior. Kind of assay: Stress Induced Depressed Behavior Test. It counts as in vivo. The following applies: rats, intraperitoneally at 5-20 mg/kg; warm (44.5° C.) surface for 15 minutes; high ratio = active. The method, then:
The compounds of this invention are active as antistress agents in warm-blooded animals as evidenced by their results when tested in the Stress Induced Depressed Behavior Test. In this test, rats were confined on a warm (44.5° C.), but aversive, surface for 15 minutes. After 5-6 minutes, control rats began to show episodes of depressed ("coping") behavior where they remained flat and immobile for short to long periods of time. The onset and total duration of this behavior was timed. A ratio of onset/duration was calculated. The test compounds were administered intraperitoneally at 5-20 mg/kg of body weight. Active compounds prolong the time of onset and shorten the duration time resulting in high ratios.

T1 sequence (P31645 whole entry): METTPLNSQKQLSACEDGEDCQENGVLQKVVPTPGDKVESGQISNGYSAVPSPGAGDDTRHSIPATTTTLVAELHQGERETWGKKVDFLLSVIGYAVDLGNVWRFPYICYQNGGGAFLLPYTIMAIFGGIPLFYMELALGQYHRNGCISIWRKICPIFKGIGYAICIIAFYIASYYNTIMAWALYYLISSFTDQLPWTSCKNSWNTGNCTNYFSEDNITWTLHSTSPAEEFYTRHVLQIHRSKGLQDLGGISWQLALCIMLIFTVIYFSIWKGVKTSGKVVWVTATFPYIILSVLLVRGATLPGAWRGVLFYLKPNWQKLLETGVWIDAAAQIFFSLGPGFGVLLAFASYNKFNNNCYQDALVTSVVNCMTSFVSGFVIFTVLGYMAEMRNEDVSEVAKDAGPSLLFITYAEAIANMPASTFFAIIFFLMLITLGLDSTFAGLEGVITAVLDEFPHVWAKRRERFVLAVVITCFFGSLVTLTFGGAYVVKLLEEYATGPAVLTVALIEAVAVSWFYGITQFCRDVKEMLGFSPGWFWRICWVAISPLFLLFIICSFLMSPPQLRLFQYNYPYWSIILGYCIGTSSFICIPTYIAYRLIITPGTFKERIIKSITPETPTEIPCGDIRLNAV

Usually inhibition stands for how much of the control response was suppressed. Regarding `CN1C[C@@H]2[C@@H]3CC[C@@H](C3)[C@]2(c2ccc(Cl)c(Cl)c2)C1` (relative stereo) [3a-(3,4-Dichlorophenyl)octahydro-2-methyl-4,7-methano-1H-isoindole hydrochloride], in assay [1], the inhibition at 10 µM is 93%. Also, the responders at 25 mg/kg in assay [2] stood at 100%; in assay [3], 60%. The Ratio onset/duration in assay [4] worked out at 59.
